This is an account of results in PMC10485820 (European Journal of Pharmaceutical Sciences, 2023).

One may read the bioavailability as the share of a dose that reaches the circulation, judged against a reference dose that is usually intravenous. High values mean much systemic uptake, low ones little systemic uptake. Broadly, the solubility is how much of the substance goes into solution per volume. High values mean a readily soluble substance, low ones a poorly soluble substance. One may read the thermodynamic solubility as the concentration in solution at equilibrium with solid. By Cmax is commonly meant the highest concentration seen after dosing. One may read the Papp A→B as how fast a substance crosses the layer from the apical side.

Data set [1] can be described thus: Bioavailability in beagle dogs (unpublished). The note with it: dog, in vivo, oral.
Data set [2] can be described thus: Equilibrium solubility of the HSK7653 API in various media. The class given is physicochemical. The note with it: 37 °C, thermodynamic from solid. As to the method:
Tests were performed by adding an excess amount of API to vials and stirring continuously at a speed of 200 rpm for 24 h at 37 °C. The API concentration was detected once per minute by an in situ fiber-optic ultraviolet (UV) dissolution real-time monitoring system (Pion Scientific Instruments, Billerica, MA, USA). All measurements were performed with n = 3.

Data set [3] is described as follows: Drug-drug interaction study of HSK7653 with metformin, multiple doses, Chinese healthy volunteers (CTR20191549): pharmacokinetics. The note with it: human, in vivo, oral, Multiple dose (D1 35 mg; D8/D15/D22 25 mg) with metformin, fasted.
A further data set addresses T1, OCT3 (Homo sapiens, UniProt O75751).
T1 sequence (O75751 1-556): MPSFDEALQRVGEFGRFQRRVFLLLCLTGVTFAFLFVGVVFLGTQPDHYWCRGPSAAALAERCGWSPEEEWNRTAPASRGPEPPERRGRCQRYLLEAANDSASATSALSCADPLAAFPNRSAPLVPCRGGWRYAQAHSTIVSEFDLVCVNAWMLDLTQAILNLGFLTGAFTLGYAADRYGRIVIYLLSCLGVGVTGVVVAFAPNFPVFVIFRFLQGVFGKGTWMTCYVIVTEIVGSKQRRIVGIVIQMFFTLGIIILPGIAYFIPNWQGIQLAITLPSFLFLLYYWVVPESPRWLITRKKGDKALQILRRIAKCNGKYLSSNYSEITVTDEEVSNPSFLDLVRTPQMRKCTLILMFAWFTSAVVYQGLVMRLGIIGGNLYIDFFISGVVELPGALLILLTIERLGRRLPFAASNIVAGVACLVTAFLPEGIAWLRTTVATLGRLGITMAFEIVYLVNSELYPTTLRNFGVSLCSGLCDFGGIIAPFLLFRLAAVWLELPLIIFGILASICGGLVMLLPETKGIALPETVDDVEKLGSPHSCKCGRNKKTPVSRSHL
The experiment in a line: Preclinical transporter substrate assessment (unpublished). The class given is in vitro ADME.

Data set [4] is described as follows: Biliary drainage study in rats (unpublished). In kind it is in vivo.
Data set [5] is described as follows: Stability in human liver microsomes incubation system (unpublished). To be noted: 1 μM, 0.5 mg/mL human liver microsomes. Background: Microsomes from liver hold many membrane-bound enzymes, among them those of drug oxidation.
Experimental: Reactions were stopped by removing the plates from the incubator and mixing the incubation solution with 600 μL of ice-cold stop solution (acetonitrile) at the corresponding sampling time points.
The target in the next data set is T2, OCT2 (Homo sapiens, UniProt O15244).
T2 sequence (O15244 1-555): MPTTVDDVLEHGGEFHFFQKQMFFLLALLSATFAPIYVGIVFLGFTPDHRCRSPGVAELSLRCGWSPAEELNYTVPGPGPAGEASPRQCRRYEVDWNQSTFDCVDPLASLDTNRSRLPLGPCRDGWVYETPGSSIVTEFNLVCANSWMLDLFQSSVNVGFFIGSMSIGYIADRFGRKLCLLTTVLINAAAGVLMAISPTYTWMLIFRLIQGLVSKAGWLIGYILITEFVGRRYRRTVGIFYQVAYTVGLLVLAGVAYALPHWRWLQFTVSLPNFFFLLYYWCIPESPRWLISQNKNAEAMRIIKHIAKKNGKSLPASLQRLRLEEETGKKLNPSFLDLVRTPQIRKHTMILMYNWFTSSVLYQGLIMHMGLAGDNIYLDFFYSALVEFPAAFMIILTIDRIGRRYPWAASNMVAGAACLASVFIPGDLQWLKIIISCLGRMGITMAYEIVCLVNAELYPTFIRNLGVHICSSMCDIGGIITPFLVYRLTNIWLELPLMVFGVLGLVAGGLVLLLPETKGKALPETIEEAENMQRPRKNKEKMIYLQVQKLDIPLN
In words: Preclinical transporter substrate assessment (unpublished). The class given is in vitro ADME.

Another data set addresses T3, OATP1B1 (Homo sapiens, UniProt Q9Y6L6).
T3 sequence (Q9Y6L6 1-691): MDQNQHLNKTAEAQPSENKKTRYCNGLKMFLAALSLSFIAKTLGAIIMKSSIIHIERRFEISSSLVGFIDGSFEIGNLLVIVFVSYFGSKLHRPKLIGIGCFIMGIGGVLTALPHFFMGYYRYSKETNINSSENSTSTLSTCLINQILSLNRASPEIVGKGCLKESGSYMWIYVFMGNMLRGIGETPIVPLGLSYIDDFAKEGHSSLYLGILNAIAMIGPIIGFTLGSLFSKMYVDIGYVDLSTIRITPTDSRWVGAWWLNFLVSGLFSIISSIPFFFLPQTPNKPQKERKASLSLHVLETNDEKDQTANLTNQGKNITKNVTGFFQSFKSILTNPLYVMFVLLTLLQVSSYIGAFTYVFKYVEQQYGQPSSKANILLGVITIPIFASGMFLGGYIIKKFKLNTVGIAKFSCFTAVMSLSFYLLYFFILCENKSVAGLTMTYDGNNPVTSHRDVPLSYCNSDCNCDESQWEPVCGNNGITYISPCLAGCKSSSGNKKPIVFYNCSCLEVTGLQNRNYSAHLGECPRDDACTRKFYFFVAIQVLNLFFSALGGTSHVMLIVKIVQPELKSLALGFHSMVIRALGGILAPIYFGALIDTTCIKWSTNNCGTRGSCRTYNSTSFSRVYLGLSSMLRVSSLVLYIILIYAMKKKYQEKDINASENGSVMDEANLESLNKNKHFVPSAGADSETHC
The data set is described as above. In kind it is in vitro ADME.

Data set [6] is described as follows: Dissolution profile of HSK7653 tablets at pH 4.5 acetum. The class given is physicochemical. From the text: The development of the DLM was complex.
Data set [7] is described as follows: Apparent permeability in Caco-2 monolayer cell lines. In kind it is in vitro ADME. The note with it: human, Caco-2. As to the method: (§1) All experiments were performed in triplicate and analyzed by high-performance liquid chromatography with tandem mass spectrometry (HPLC-MS/MS). The apparent permeability coefficient (Papp) of each compound under the corresponding concentration was calculated according to Eq. (1) and listed as follows:(1) Papp=dQ/dt×1/A×C0 Where Papp was the apparent permeability coefficient (cm/s × 10^−6), dQ/dt (pmol/second) was the rate at which the compound appears in the receiver side, C0 (nM) was the initial concentration of the compound in the donor side, and A (cm^2) represented the surface area of the cell monolayer.

Another data set has as its system Caco-2 monolayer cells. Described as above. In kind it is in vitro ADME. The note with it: from Papp A→B at 1, 5, 20 μM. As to the method: as §1
Data set [8] is described as follows: Multidose clinical study of biweekly HSK7653 IR tablets in T2DM patients (CTR20182505): pharmacokinetics. The class given is in vivo, human. The note with it: biweekly administration of IR tablets.

Converted amounts (≈) assume the structure as drawn.

`CS(=O)(=O)n1cc2c(n1)CN([C@@H]1C[C@H](N)[C@@H](c3cc(F)ccc3F)O[C@@H]1C(F)(F)F)C2` [HSK7653] returned a bioavailability in data set [1] of 70.9%. Besides, the solubility at 24 h was approximately 5310 µg/mL (≈ 11.4 mM) in data set [2] (fassgf or other biorelevant, FaSSGF medium) and approximately 342 µg/mL (≈ 0.733 mM) in data set [2] (FaSSIF medium). Moreover, the solubility (thermodynamic) at 24 h in [2] (pH 1.0 hydrochloric acid (HCl) solution, simulated gastric fluid, pH 1.0 HCl solution) was 11600 µg/mL (≈ 24.8 mM); in [2] (pH 8.0 phosphate buffer saline (PBS), aqueous buffer, pH 8.0 PBS), 120 µg/mL (≈ 0.257 mM). Besides, the maximum concentration (Cmax) in [3] is 533 ng/mL. Besides, in data set [3] (read-out: CL Obs (converted)), the clearance is 9.17 mL/min. In addition, the Vd/F in [3] (read-out: VZ/F Obs) is 1.08 L/kg. In addition, the Transporter substrate assessment result at OCT3, at OCT2 and on OATP1B1 was “not a common transport substrate” in each case. Further, the “Radioactivity recovered in biliary drainage study” value in data set [4] is on record as “approximately 16.6%”. For the same compound, in data set [5], the “Metabolic stability in human liver microsomes” value is “very stable”. Besides, the figures for the “Fasted Dissolution (%)” value in [6] (time 0.167 h), in data set [6] (time 0.333 h) and in data set [6] (time 0.50 h) were 70.52%, 95.97% and 100.0%, respectively. Also, the apical-to-basolateral permeability (Papp A→B) at 2 h, 1 μM in data set [7] (1 μM, 2 h, 37 °C) is 25.3 ×10⁻⁶ cm/s. Further, the Papp A→B at 2 h, 5 μM in data set [7] (5 μM, 2 h, 37 °C) came out at 29.3 ×10⁻⁶ cm/s. Also, the Papp A→B at 2 h, 20 μM in data set [7] (20 μM, 2 h, 37 °C) was 40.3 ×10⁻⁶ cm/s. For the same compound, in data set [7] (average value of Papp at different incubation concentrations, apical pH: basolateral pH 7.4: 7.4, read-out: Caco-2 permeability, model input), the Papp at 2 h was found to be 31.6 ×10⁻⁶ cm/s. Further, the Permeability classification entry in the data set with Caco-2 monolayer cells is “high-permeability compound”. Moreover, the Accumulation result in [8] was “no accumulation”.
